Here are results for 5 compounds from patent US6414035B1, “Use of polyols in combating yeast infection and polyol preparations for said use” (priority 1997, dated 2002).

Marks after values point to notes of the source that are not given here. Some results are limits rather than exact numbers.

Assay [1] relates to Candida isolate from AIDS patient No 1. In words: Sensitivity test of Candida isolate to antifungals. Particulars: for sensitivity of the isolate: Candida isolate from AIDS patient No 1. It is filed as cell-based.
Assay [2] has as its system Candida (oral or esophageal candidiasis). In words: Open label pilot trial of dietary xylitol intake in AIDS patients with candida mucositis. It is filed as in vivo, human. More on the design: pain symptoms (score) / Sympt. score: scale not given here. An excerpt:
An open label, pilot trial was designed to test the effect of the strategy of dietary xylitol intake in replacement of sugar in patients with candida mucositis. AIDS patients with oral or esophageal candidiasis were selected as subjects for the study because of the frequency and the severity of candida mucositis that they usually develop. Patients with AIDS were considered eligible for the test after their oral or esophageal lesions were documented by microscopic examination of scrapings to be of Candida origin. They were free to continue on any antifungal therapy they might be receiving. Instructions were given to replace the saccharose that they normally take with coffee or tea for crystalline xylitol. Also, to avoid excess sweets like ice cream, cakes. cookies, and artificially flavored drinks that contain glucose. The following was done at baseline and thereafter every 7 days: 1. Pictures of the lesions 2. Tongue imprints in Sabouraud agar 3. Quantitative Candida cultures on unstimulated saliva (CFU/ml) 4. Pain questionnaire (numerical pain scale) 5. Weight 6. Patients kept a daily record of food and drink.

In the next assay the test system is salivary Candida. Particulars: diet of human test group during 8 months; cited from earlier work.
Another assay has as its system Candida. Particulars: cited from earlier work.
For assay [3], the system named is Candida (recurrent oral candidiasis). In words: Pilot study of xylitol replacing dietary saccharose in patients with recurrent oral candidiasis. It is filed as in vivo, human. An excerpt:
A pilot study was designed to test the effect of xylitol on the clinical course, Candida salivary counts, and antifungal needs of patients with recurrent oral candidiasis. The patients were instructed to replace their dietary saccharose with crystalline xylitol and to avoid excess saccharose-containing-foods and beverages.
Of 14 patients admitted to the test, 8 completed more than 14 days of follow up. The result was that all 8/8 experienced at least 70% regression of their lesions (improvement) with minimal antifungal therapy (1 nystatin tablet 500,000 U/per day); 5/8 had complete regression of the lesions (cure); and 6/8 decreased their salivary Candida counts by 2 logs.

Assay [4] deals with Candida isolate from AIDS patient No 1. In words: Growth of Candida isolate on Muller Hinton agar with sugar or sugar alcohol. It is filed as cell-based. Particulars: 5 and 10%, FIG. 1. Here is the method:
The effect of sugar alcohols on the growth of said Candida isolate was tested on Muller Hinton agar with 5 and 10% glucose or 5 and 10% xylitol and a control without sugar.

The subject of another assay is Candida albicans. In words: Growth in vitro of Candida albicans in Muller Hinton broth with sweeteners (optical density 650 nm). It is filed as cell-based. Particulars: 10% concentration, 12 strains. The source says: A test was designed to determine the effect on the growth in vitro of Candida albicans of xylitol, lactitol, sorbitol and aspartame in comparison to glucose and a non-carbohydrate control medium. The tested substances have all been used in the food industry as sweeteners. The sweetness of the substances in the above order is respectively 100%, 40%, 60% and 20.000% of the sweetness of glucose.
12 strains of Candida albicans obtained from patients with AIDS and oral candida mucositis were evaluated. The strains were inoculated on Sabouraud agar plates (20% dextrose) and incubated at room temperature for 48 hours. One colony from each plate was inoculated in Muller Hinton broth (without sweetener) and left for 18 hours at 35° C. The tubes were standardized to Mac Farland 0.5 (5×10^6 CFU/ml) and 100 μl inoculated in triplicate in spectrophotometer tubes containing 3 ml of Muller Hinton broth at final concentrations of glucose (5% and 10%); xylitol (5% and 10%); lactitol (5%, 8.3% and 10%); sorbitol (5%, 10% and 12.5%); and aspartame (0.025% and 0.05%). 3 tubes with Muller Hinton broth without carbohydrate was also inoculated to serve as controls.
Optical densities (650 nm) were determined at 0, 24 and 48 hours time. The average of three readings per time, per sweetener concentration was calculated and recorded. […]

`C[C@@H]1[C@H](O)[C@@H](C)/C=C/C=C/C=C/C=C/C=C/C=C/C=C/[C@H](O[C@@H]2O[C@H](C)[C@@H](O)[C@H](N)[C@@H]2O)C[C@@H]2O[C@](O)(C[C@@H](O)C[C@@H](O)[C@H](O)CC[C@@H](O)C[C@@H](O)CC(=O)O[C@H]1C)C[C@H](O)[C@H]2C(=O)O` [Amphotericin B]: the “sensitivity of the isolate” value in assay [1] is “sensitive”.
On to `OC(Cn1cncn1)(Cn1cncn1)c1ccc(F)cc1F` [Fluconazole], for which, in assay [2] (AIDS patient No 2, a month later, fluconazole p.o. for 15 days during xylitol trial), the follow up esophagoscopy entry is “no lesions”. Moreover, the MIC – broadly, the smallest concentration in the dilution series that meets the test's criterion for growth inhibition – in assay [1] (Candida) was > 256 µg/mL. Further, the “sensitivity of the isolate” value in assay [1] is “resistant”.
`O=C(CO)[C@@H](O)[C@H](O)[C@H](O)CO` [fructose]: in the assay on salivary Candida, the “number of persons with salivary Candida growth” value (shortened to “number of persons”) was “slight increase”.
As to `OC[C@H]1O[C@@](CO)(O[C@H]2O[C@H](CO)[C@@H](O)[C@H](O)[C@H]2O)[C@@H](O)[C@@H]1O` [sucrose], the “number of persons” value with salivary Candida is recorded as “slight increase”.
With `OC[C@@H](O)[C@H](O)[C@@H](O)CO` [xylitol], in the assay on salivary Candida, the “number of persons” value is recorded as “significantly reduced”. Besides, the esophageal lesions result in assay [2] (AIDS patient No 2, Candida esophagitis, two weeks after start of xylitol intake, no antifungal therapy) is given as “unchanged lesions”. The Sympt. score in assay [2] (AIDS patient No 2, day 1) is 18; in assay [2] (AIDS patient No 2, day 7), 0; in assay [2] (AIDS patient No 2, day 15), 0; in assay [2] (AIDS patient No 2, day 22), 0; in assay [2] (AIDS patient No 2, day 29) it was 0; in assay [2] (AIDS patient No 2, day 36), 0. Also, the Sympt. score was found to be 0 in assay [2] (AIDS patient No 2, day 50); 18 in assay [2] (AIDS patient No. 1, day 1); 0 in assay [2] (AIDS patient No. 1, day 8); 0 in assay [2] (AIDS patient No. 1, day 18); 0 in assay [2] (AIDS patient No. 1, day 29); 0 in assay [2] (AIDS patient No. 1, day 36). The Sympt. score in assay [2] (AIDS patient No. 1, day 56) turned out to be 0; in assay [2] (AIDS patient No. 1, day 80), 0. The Weight was 58,5 Kg in assay [2] (AIDS patient No 2, day 1); 58,5 Kg in assay [2] (AIDS patient No 2, day 7); 58,5 Kg in assay [2] (AIDS patient No 2, day 15); 57,5 Kg in assay [2] (AIDS patient No 2, day 22); 57,2 Kg in assay [2] (AIDS patient No 2, day 29); 57,7 Kg in assay [2] (AIDS patient No 2, day 36). Moreover, the Weight in assay [2] (AIDS patient No 2, day 50) is 56,9 Kg; in assay [2] (AIDS patient No. 1, day 1), 62 kg; in assay [2] (AIDS patient No. 1, day 8), 62.6 kg; in assay [2] (AIDS patient No. 1, day 18) it was 73.4 kg; in assay [2] (AIDS patient No. 1, day 29) it was 73 kg; in assay [2] (AIDS patient No. 1, day 36), 74.8 kg. In addition, the Weight is 75 kg in assay [2] (AIDS patient No. 1, day 56) and 75.1 kg in assay [2] (AIDS patient No. 1, day 80). The CFU/ml saliva in assay [2] (AIDS patient No 2, day 7) is 0 CFU/ml; in assay [2] (AIDS patient No 2, day 15, counted at 72 hours) it was 3,6 × 10^3** CFU/ml; in assay [2] (AIDS patient No 2, day 22, counted at 72 hours, fluconazole p.o. started after two weeks), 4,5 × 10^2** CFU/ml; in assay [2] (AIDS patient No 2, day 29, fluconazole p.o. started after two weeks), 0 CFU/ml; in assay [2] (AIDS patient No 2, day 36, fluconazole p.o. 15 days given after two weeks), 0 CFU/ml; in assay [2] (AIDS patient No 2, day 50, fluconazole p.o. 15 days given after two weeks), 0 CFU/ml. In assay [2] (AIDS patient No. 1, about 30 g crystalline xylitol daily), this compound registered a symptom-free follow-up period of 80 days. The Candida counts result in assay [2] (AIDS patient No. 1, after 2.5 months) was “still negative”; in assay [2] (AIDS patient No. 1, day seven) it was “negative”. Further, the CFU/mL saliva is 1×10^4 CFU/mL in assay [2] (AIDS patient No. 1, day 1, counted at 48 hours); 0** CFU/mL in assay [2] (AIDS patient No. 1, day 8, plates held for 7 days); 0** CFU/mL in assay [2] (AIDS patient No. 1, day 18, plates held for 7 days); 0** CFU/mL in assay [2] (AIDS patient No. 1, day 29, plates held for 7 days); 0** CFU/mL in assay [2] (AIDS patient No. 1, day 36, plates held for 7 days); 0** CFU/mL in assay [2] (AIDS patient No. 1, day 56, plates held for 7 days). Besides, the CFU/mL saliva in assay [2] (AIDS patient No. 1, day 80, plates held for 7 days) is 0** CFU/mL. The weight gained in assay [2] (AIDS patient No. 1, follow-up of 80 days) is recorded as 13.1 kilograms. The “time to disappearance of the lesions” value in assay [2] (AIDS patient No. 1, ketoconazole discontinued on day four) is reported as 1 week. Further, in assay [2] (AIDS patient No. 1, on ketoconazole until day four), the “improvement noticed by the patient” value is “clear improvement on day four”. For the same compound, the “time to recurrence of oral candidiasis after stopping the xylitol trial” value in assay [2] (AIDS patient No. 3) is on record as 4 days. Besides, the “pain symptoms (score)” value in assay [2] (AIDS patient No. 3, at start) is on record as 30; in assay [2] (AIDS patient No. 3, in the first 17 days, 1 nystatin troche during the first five days), 8. Besides, the saliva counts result in assay [2] (AIDS patient No. 3, first 17 days) is on record as “diminished”. Further, the “Candida growth and invasion compared to controls” value in the assay on Candida (given instead of glucose) is listed as “did not increase”. Further, in the assay with Candida (immunocompromised mice), the “invasion of gastrointestinal mucosa by Candida relative to mice receiving glucose” value is “five times less”. The “scores of invasion versus control mice receiving no sugar” value in the assay with Candida (immunocompromised mice) was “not significantly different”. The “lesions and fungal cultures after 4 months of xylitol intake” value in assay [3] (1 patient, previously fluconazole resistant isolate (E test)) was “without lesions and sterile fungal cultures”. Besides, the “patients who decreased their salivary Candida counts by 2 logs” value in assay [3] (more than 14 days follow up) is listed as 6/8. Also, in assay [3] (more than 14 days follow up), the “patients with complete regression of the lesions (cure)” value was 5/8. For the same compound, the “patients with at least 70% regression of their lesions (improvement)” value in assay [3] (more than 14 days follow up, with minimal antifungal therapy (1 nystatin tablet 500,000 U/per day)) is recorded as 8/8. The “time to return to baseline after returning to saccharose intake” value in assay [3] (three patients) was 3 days. Besides, the “growth of Candida isolate compared to control without sugar” value in assay [4] is reported as “inhibited in a dose dependent way”. The “rank among tested compounds at reducing the growth of Candida in vitro” value in the assay with Candida albicans was “by far the best”.
